Values of other authors in patent US6838451B1, “Methods and compositions for the prevention and treatment of inflammation, osteoarthritis, and other degenerative joint diseases” (Pharmanutrients, priority 2000, dated 2005).

Tests used:
[1] = dietary supplement

Compound	excreted as exhaled carbon dioxide (of the absorbed glucosamine) [%]	excreted in the urine (of the absorbed glucosamine) [%]	remaining in the tissues (of the absorbed glucosamine) [%]	absorbed from the small intestine (sulfate form)	toxicity [1]
N[C@H]1C(O)O[C@H](CO)[C@@H](O)[C@@H]1O (some centres unmarked) [glucosamine]	65	25	10	over 90%	
conjugated linoleic acid					nontoxic
